Laboratory results: PubChem BioAssay AID623861 (Sanford-Burnham Center for Chemical Genomics, 2012)
Activity calls are given as the source filed them.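 Rule for the calls: active = compounds whose EC50 for boosting single-cell stem cell survival is at or below a set limit; inactive = the rest.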

The molecules below were run on human iPSC single-cell survival, ATP luminescence (assay: enhancers of single-cell hiPSC survival, dose response, luminescence (AID 623861)).

SMILES | EC50
CN(Cc1ccccc1)C(=O)CN1CCN(S(=O)(=O)c2ccccc2F)CC1 | > 80 µM (inactive)
COC(=O)c1[nH]c2ccccc2c1NC(=O)CCN1CCSCC1 | > 80 µM (inactive)
COC(=O)c1ccc(C(=O)OC)c(NC(=O)CSc2cccc[n+]2[O-])c1 | > 80 µM (inactive)
COc1ccc(CN(C)CCCn2cnc3c(OC)ncnc32)cc1OC | > 80 µM (inactive)
COc1cccc(C2CC(=O)N3CN(c4cccc(Cl)c4C)CSC3=C2C#N)c1OC (stereo not given) | > 80 µM (inactive)
COC(=O)[C@]1(Cc2ccccc2)N[C@H](CN(C)C(=O)Nc2ccccc2)[C@@H]2C(=O)N(C)C(=O)[C@@H]21 | > 80 µM (inactive)
COC(=O)CCSc1cc([N+](=O)[O-])cc2c1c(C1OCCS1)nn2-c1ccccc1 (stereo not given) | 42.7 µM (inactive)
O=C(NC1CCCCC1)N(Cc1nc2ccccc2c(=O)[nH]1)C1CCCCC1 | > 80 µM (inactive)
CC(C)(C)NC(=O)Cn1nnc(-c2ccccc2NC(=O)c2cnccn2)n1 | 10.8 µM
O=C(Nc1nc(-c2ccncc2)cs1)C1COc2ccccc2O1 (stereo not given) | 3.19 µM
O=C(NCCCN1CCCCCC1)C1CC(=O)N(CCc2ccccc2)C1 (stereo not given) | > 80 µM (inactive)
O=C(NCc1ccccc1)c1ccc(-c2cn[nH]c2)c2ccoc12 | 1.22 µM
O=C(NCCCN1CCCCCC1)c1ccc(CS(=O)(=O)Cc2ccccc2F)o1 | > 80 µM (inactive)
CC(C)CCNC(=O)c1onc(CSc2ccc(F)cc2)c1C(=O)NCCC(C)C | > 80 µM (inactive)
O=C(O)c1cc(C(=O)C2CC2)c[nH]1 | > 80 µM (inactive)
CC(OC(=O)c1ccc(S(=O)(=O)N2CCCCC2)cc1)C(=O)Nc1ccc(C(N)=O)cc1 (stereo not given) | 8.72 µM
O=C(Nc1ccc(N2CCOCC2)cc1)c1cccc(S(=O)(=O)N2CCCC2)c1 | > 80 µM (inactive)
CCOC(=O)c1c(-c2cc(OC)c(OC)c(OC)c2)csc1N | > 80 µM (inactive)
O=C(NCC1CC1)c1ccc(-c2cn[nH]c2)c2ccoc12 | 13.1 µM
CC(C)CC1Nc2ncnc(N3CCN(c4ccccc4)CC3)c2N(Cc2ccccc2)C1=O (stereo not given) | > 80 µM (inactive)
Cn1c(=O)cc(OCCCC(=O)Nc2cccc(Cl)c2)c2ccccc21 | > 80 µM (inactive)
CNc1nc(Cl)nc(NC(C)(C)C)n1 | > 80 µM (inactive)
O=C1NCCN1c1ccccc1 | > 80 µM (inactive)
C1CCN(c2nc3nonc3nc2N2CCCC2)C1 | > 80 µM (inactive)

SMILES | EC50
Cc1ccc([C@@H]2C[C@H]3[C@@H](CN2S(=O)(=O)c2ccc(Cl)cc2)C(=O)C[C@@H](c2ccc(C)cc2)N3S(=O)(=O)c2ccc(Cl)cc2)cc1 | > 80 µM (inactive)
CCOC1=C2[C@H](c3ccc(C)cc3)N(S(=O)(=O)c3ccc(C)cc3)C[C@H]2n2c(=O)n(-c3ccccc3)c(=O)n2C1 | > 80 µM (inactive)
CC1(C)Cc2c(C#N)c(NCC3CCCO3)nc(-c3ccco3)c2CO1 (stereo not given) | 15.6 µM
COc1cc(CC(CC(=O)O)CC(C)OCc2ccccc2)cc(OC)c1 (stereo not given) | > 80 µM (inactive)
COc1ccc2c(c1)c1ccc3c(c1n2C)C(=O)C=CC3=O | > 80 µM (inactive)
Cc1ccc2c(COC(=O)C3=COCCO3)cc(=O)oc2c1 | > 80 µM (inactive)
C=C1C(C)C2C(Cc3ccccc3)NC(=O)C23OC(=O)/C=C/C(O)CCCC(C)C/C=C/C3C1O (stereo not given) | 11.5 µM
CS(=O)(=O)N(Cc1cc2ccccc2[nH]c1=O)C1CCCCC1 | > 80 µM (inactive)
COc1ccc(C(C#N)(CC(=O)O)c2cnccn2)cc1OC (stereo not given) | > 80 µM (inactive)
CC1C/C(=C/c2ccncc2)C(=O)/C(=C/c2ccncc2)C1 (stereo not given) | 12.9 µM
O=C(Nc1ccncc1)c1cc(S(=O)(=O)N2CCOCC2)ccc1Cl | 20.4 µM (inactive)
CCCn1c(SCc2ccccc2)nc2c1c(=O)[nH]c(=O)n2C | > 80 µM (inactive)
C[C@@H]1CCCCO[C@@H](CN(C)S(=O)(=O)c2cccs2)[C@@H](C)CN([C@H](C)CO)C(=O)c2cc(NS(=O)(=O)c3ccccc3)ccc2O1 | > 80 µM (inactive)
Cc1ccc(CN2CCN(Cc3cn(C)nc3C)CC2CCO)o1 (stereo not given) | > 80 µM (inactive)
CCn1c(Cl)c(C=O)s/c1=N\S(=O)(=O)c1ccccc1 | 24.8 µM (inactive)
O=C(COC(=O)c1ccccc1C(=O)c1ccc(Cl)c([N+](=O)[O-])c1)NC1CC1 | > 80 µM (inactive)
CN(Cc1ccc(C(F)(F)F)cc1)C(=O)[C@H]1O[C@@H](n2cnc3c(N)ncnc32)[C@H](O)[C@@H]1O | 26.1 µM (inactive)
CCOCCCNC(=O)/C(C#N)=C/c1ccc([N+](=O)[O-])o1 | 53.1 µM (inactive)
CCCc1ccc(C(=O)N2CCN(c3ccccc3OCC)CC2)cc1 | > 80 µM (inactive)
Cc1c(C(=O)NCc2ccccc2C(F)(F)F)sc(=O)n1Cc1ccc2ccccc2c1 | > 80 µM (inactive)
C=C1C(=O)OC2C1CCC(C)=C1C(=O)C3OC3(C)C12 (stereo not given) | > 80 µM (inactive)
O=C(Nc1ccncc1)c1c(F)c(F)c(F)c(F)c1F | 5.93 µM
O=C(Nc1ccncc1)c1ccccc1F | 41 µM (inactive)
CCN1C/C(=C\c2cccc([N+](=O)[O-])c2)C(=O)/C(=C/c2cccc([N+](=O)[O-])c2)C1 | 20 µM

SMILES | EC50
Cc1cc(Cl)n2nc(C)c(-c3ccc(Cl)cc3)c2n1 | > 80 µM (inactive)
CC(OC(=O)c1ccc(S(C)(=O)=O)c([N+](=O)[O-])c1)C(=O)NC1C2CC3CC(C2)CC1C3 (stereo not given) | > 80 µM (inactive)
CC(OC(=O)c1ccc2c(=O)n3c(nc2c1)CCC3)C(=O)Nc1ccc(C(N)=O)cc1 (stereo not given) | 55.6 µM (inactive)
Cc1ccc(CCN2CC(C(=O)NCCCN3CCCCCC3)CC2=O)cc1 (stereo not given) | > 80 µM (inactive)
C=C(C)[C@@]12OC3(c4ccccc4)O[C@@H]1C1[C@@H]4O[C@]4(CO)[C@@H](O)[C@]4(O)C(=O)C(C)=C[C@H]4[C@@]1(O3)[C@H](C)[C@H]2OC(=O)/C=C/C=C/c1ccccc1 (stereo not given in full) | < 0.156 µM
CC(=O)c1ccccc1NC(=O)COC(=O)CCCN1C(=O)c2cccc3cccc(c23)C1=O | > 80 µM (inactive)
Cc1ccc(NC(=O)/C(=C\c2ccc([N+](=O)[O-])cc2)NC(=O)c2ccccc2)cc1 | > 80 µM (inactive)
CCCc1nc(SCC(=O)Nc2nc3c(s2)CCCC3)c2ccccc2n1 | > 80 µM (inactive)
CCCOC(=O)Oc1ccc2c(=O)c(Oc3cc(C)cc(C)c3)coc2c1 | > 80 µM (inactive)
O=C(Nc1ccncc1)c1c(F)cccc1F | 3.27 µM
O=C(C(O)c1ccc(Br)cc1)N1CCC(Nc2ccc3[nH]ncc3c2)CC1 (stereo not given) | 6.68 µM
O=C(Nc1ccncc1)c1cc(S(=O)(=O)N2CCCC2)ccc1Cl | 20.5 µM (inactive)
CCOC(=O)c1ccc(NC(=O)c2nc(S(=O)(=O)Cc3ccccc3)ncc2Cl)cc1 | > 80 µM (inactive)
Cc1ccc(S(=O)(=O)N[C@H](C(=O)OCC(=O)NC(=O)NCc2ccco2)C(C)C)cc1 | > 80 µM (inactive)
O=C1CCC2(C(=O)O)Sc3ccccc3N12 (stereo not given) | > 80 µM (inactive)
CCCOC(=O)C1NC(=O)N2C(C(=O)OCCC)C(C)(C)S[C@H]12 (stereo not given in full) | > 80 µM (inactive)
CC1CCN(C(=O)c2[nH]cnc2C(=O)NCC(=O)OC(C)(C)C)CC1 | > 80 µM (inactive)
CCC(OC(=O)c1ccc(S(C)(=O)=O)c([N+](=O)[O-])c1)C(=O)NC1C2CC3CC(C2)CC1C3 (stereo not given) | > 80 µM (inactive)
CCS(=O)(=O)c1ncc(Cl)c(C(=O)Nc2ccc(S(=O)(=O)N(C)c3ccccc3)cc2)n1 | > 80 µM (inactive)
CN1Cc2cnnn2-c2ccccc2C1C#N (stereo not given) | 25.7 µM (inactive)
O=C1/C(=C/c2ccncc2)CCC/C1=C\c1ccncc1 | 10.1 µM
COc1ccc(C2=CC(=O)C[C@H](c3ccc(OC)c(OC)c3)C2)cn1 | > 80 µM (inactive)
CCOC(=O)C(=O)/C(=C\N(C)C)c1onc(-c2c(F)cccc2Cl)c1C(=O)OC | > 80 µM (inactive)
CCc1c(C(=O)Nc2ccc(OC)cc2)[nH]c(C)c1C(C)=O | > 80 µM (inactive)

SMILES | EC50
CC1(C)Cc2c(C#N)c(SCC(=O)c3ccccc3)nc(N3CCOCC3)c2CS1 | 13.4 µM
O=c1c(Cl)c(Cl)cnn1Cc1nnc(-c2ccccc2Br)o1 | 8.37 µM
CN1C/C(=C/c2cccnc2)C(=O)/C(=C/c2cccnc2)C1 | 13.7 µM
C=C1C(=O)O[C@@H]2C[C@@H](C)[C@@H]3C=CC(=O)[C@@]3(C)[C@@H](O)[C@H]12 | 7.88 µM
Cc1ccc(NS(=O)(=O)c2ccc3c(c2)CC(=O)N3)c(C)c1 | > 80 µM (inactive)
CNc1cc(Cl)c2nonc2c1[N+](=O)[O-] | 12.9 µM
COc1ccc(CC(=O)N2N=C(c3ccncc3)CC2(O)C(F)(F)F)cc1 (stereo not given) | > 80 µM (inactive)
COc1ccc(OC)c(NC(=O)C(CC(C)C)NC(=O)C2CCCCC2)c1 (stereo not given) | > 80 µM (inactive)
CCS(=O)(=O)c1ncc(Cl)c(C(=O)Nc2ccc(S(=O)(=O)N3CCCC(C)C3)cc2)n1 (stereo not given) | > 80 µM (inactive)
C[C@@H](NC(=O)[C@@H]1Cc2ccccc2CN1)C(=O)Nc1ccc2c(c1)OCO2 | > 80 µM (inactive)
C=C1C(C)C2C(Cc3ccccc3)NC(=O)C23C(OC(C)=O)C=CC(C)(O)CC(C)CC=CC3C1O (stereo not given) | 0.448 µM
Cc1sc(-c2ccccn2)nc1OC(=O)c1ccc(Cl)c(Cl)c1 | > 80 µM (inactive)
CCOC(=O)c1c(C)nc2sc3c(c2c1-c1ccc(OC)cc1)NC(c1ccccc1)NC3=O (stereo not given) | > 80 µM (inactive)
COc1ccccc1CC(=O)Nc1ccc(-c2noc(COc3cccc(C)c3C)n2)cc1 | > 80 µM (inactive)
CCCCn1c(=O)[nH]c(=O)c2c1nc(Cn1ncc(Cl)c(Cl)c1=O)n2CCC | 5.62 µM
CC(C)C12CN3CC(C(C)C)(CN(C1)C3c1ccccc1O)C2=O (stereo not given) | > 80 µM (inactive)
CS(=O)(=O)Nc1ccc2c3c(cccc13)CC2 | > 80 µM (inactive)
CCOc1ccc(S(=O)(=O)Nc2cccc(C(=O)N3CCN(c4ccc(OC)cc4)CC3)c2)cc1 | > 80 µM (inactive)
C=C1C(=O)OC2CC(C)C3C=CC(=O)C3(C)C(O)C12 (stereo not given) | 9.47 µM
NC(=O)c1ccc(NC(=O)CCC(=O)c2cccs2)cc1 | 9.86 µM
Cn1cnnc1SCC(=O)c1ccc2c(c1)OCO2 | > 80 µM (inactive)
Cc1ccc(OCCN2CCN(c3nc(NCc4ccco4)c4ccccc4n3)CC2)cc1 | 2.81 µM
N#C/C(=C/c1cccc([N+](=O)[O-])c1)c1nnc2n1CCCCC2 | 7.37 µM
